{"source": "patent US20070128217A1", "about": "(priority 2003, published 2007)", "key": {"[1]": {"system": "antibodies in sera from SARS patients (sera 1a, 1b, 2, 6, 37, 62, London, SARS-yellow, SARS-green)", "type": "binding, human", "set-up": "Binding of serum 6 to linear peptides of protein X1 of SARS-CoV Urbani / Binding of serum 37 to linear peptides of protein X1 of SARS-CoV Urbani / Binding of serum 6 to looped/cyclic peptide (PEPSCAN-ELISA) / Binding of serum 37 to looped/cyclic peptide (PEPSCAN-ELISA) / Binding of serum 37 to looped/cyclic peptides of protein X1 of SARS-CoV Urbani / Binding of serum 6 to linear peptides of protein X2 / Binding of serum 37 to linear peptides of protein X2 / Binding of serum 37 to looped/cyclic peptides of protein X2 of SARS-CoV Urbani / Binding of serum 6 to linear peptides of protein M of SARS-CoV Urbani / Binding of serum 37 to linear peptides of protein M of SARS-CoV Urbani / Binding of serum 6 to looped/cyclic peptides of protein M of SARS-CoV Urbani / Binding of serum 37 to looped/cyclic peptides of protein M of SARS-CoV Urbani / Binding of serum 6 to linear peptides of protein X3 of SARS-CoV Urbani / Binding of serum 37 to linear peptides of protein X3 of SARS-CoV Urbani / Binding of serum 37 to looped/cyclic peptides of protein X3 of SARS-CoV Urbani / Binding of serum 6 to linear peptides of protein X4 of SARS-CoV Urbani / Binding of serum 37 to linear peptides of protein X4 of SARS-CoV Urbani / Binding of serum 37 to looped/cyclic peptides of protein X4 of SARS-CoV Urbani / Binding of serum 6 to linear peptides of protein X5 of SARS-CoV Urbani / Binding of serum 37 to linear peptides of protein X5 of SARS-CoV Urbani / Binding of serum 37 to looped/cyclic peptides of protein X5 of SARS-CoV Urbani / Binding of serum 6 to linear peptides of protein N of SARS-CoV Urbani / Binding of serum 37 to linear peptides of protein N of SARS-CoV Urbani / Binding of serum 6 to linear peptide (PEPSCAN-ELISA) / Binding of serum 1a to looped/cyclic peptides of protein N of SARS-CoV Urbani / Binding of serum 1b to looped/cyclic peptides of protein N of SARS-CoV Urbani / Binding of serum 2 to looped/cyclic peptides of protein N of SARS-CoV Urbani / Binding of serum 6 to looped/cyclic peptides of protein N of SARS-CoV Urbani / Binding of serum 37 to looped/cyclic peptides of protein N of SARS-CoV Urbani / Binding of serum 62 to looped/cyclic peptides of protein N of SARS-CoV Urbani / Binding of serum London to looped/cyclic peptides of protein N of SARS-CoV Urbani / Binding of serum SARS-green to looped/cyclic peptides of protein N of SARS-CoV Urbani: unit not given here"}, "[2]": {"system": "control sera (pooled serum of ten healthy LUMC hospital workers; commercial negative donor pooled serum from the Dutch bloodbank)", "type": "binding, human", "set-up": "Binding of Control serum LUMC to linear peptides / Binding of Control serum Blood-bank to linear peptides / Binding of Control serum LUMC to looped peptides / Binding of Control Serum Blood-Bank to Looped peptides / Binding of Control serum LUMC to linear peptides of the protein M of SARS-CoV Urbani / Binding of Control serum Blood-bank to linear peptides of the protein M of SARS-CoV Urbani / Binding of Control serum LUMC to looped peptides of the protein M of SARS-CoV Urbani / Binding of Control Serum Blood-Bank to Looped peptides of the protein M of SARS-CoV Urbani: unit not given here"}, "[3]": {"system": "rabbit serum obtained by immunizing a rabbit with the SARS-CoV strain Frankfurt 1", "type": "binding", "set-up": "Binding of a rabbit serum to linear peptides / Binding of a rabbit serum to looped peptides / Rabbit serum linear peptides / Rabbit serum looped peptides / Binding of a rabbit serum to linear peptides of protein N of SARS-CoV Urbani (Rabbit serum linear peptides) / Binding of a rabbit serum to looped/cyclic peptides of protein N of SARS-CoV Urbani (Rabbit serum looped peptides): unit not given here"}}}
{"sequence": "IQQWIQFMMSRRRLL", "values": [{"measurement": "Binding of serum 1a to linear peptides of protein X2", "setting": "[1]", "result": 0.6}, {"measurement": "Binding of serum 1a to looped/cyclic peptides of protein X2 of SARS-CoV Urbani", "setting": "[1]", "result": 0.4}, {"measurement": "Binding of serum 1b to linear peptides of protein X2", "setting": "[1]", "result": 0.5}, {"measurement": "Binding of serum 1b to looped/cyclic peptides of protein X2 of SARS-CoV Urbani", "setting": "[1]", "result": 0.4}, {"measurement": "Binding of serum 2 to linear peptides of protein X2", "setting": "[1]", "result": 0.4}, {"measurement": "Binding of serum 2 to looped/cyclic peptides of protein X2 of SARS-CoV Urbani", "setting": "[1]", "result": 0.5}, {"measurement": "Binding of serum 6 to linear peptides of protein X2", "setting": "[1]", "result": 0.6}, {"measurement": "Binding of serum 6 to looped/cyclic peptides of protein X2 of SARS-CoV Urbani", "setting": "[1]", "result": 0.4}, {"measurement": "Binding of serum 37 to linear peptides of protein X2", "setting": "[1]", "result": 0.6}, {"measurement": "Binding of serum 37 to looped/cyclic peptides of protein X2 of SARS-CoV Urbani", "setting": "[1]", "result": 0.5}, {"measurement": "Binding of serum 62 to linear peptides of protein X2", "setting": "[1]", "result": 0.5}, {"measurement": "Binding of serum 62 to looped/cyclic peptides of protein X2 of SARS-CoV Urbani", "setting": "[1]", "result": 0.7}, {"measurement": "Binding of serum London to linear peptides of protein X2", "setting": "[1]", "result": 0.4}, {"measurement": "Binding of serum London to looped/cyclic peptides of protein X2 of SARS-CoV Urbani", "setting": "[1]", "result": 0.2}, {"measurement": "Binding of serum SARS-green to linear peptides of protein X2", "setting": "[1]", "result": 0.3}, {"measurement": "Binding of serum SARS-green to looped/cyclic peptides of protein X2 of SARS-CoV Urbani", "setting": "[1]", "result": 0.4}, {"measurement": "Binding of serum SARS-yellow to linear peptides of protein X2", "setting": "[1]", "result": 0.8}, {"measurement": "Binding of serum SARS-yellow to looped/cyclic peptides of protein X2 of SARS-CoV Urbani", "setting": "[1]", "result": 0.5}, {"measurement": "Binding of Control Serum Blood-Bank to Looped peptides", "setting": "[2]", "result": 0.5}, {"measurement": "Binding of Control serum Blood-bank to linear peptides", "setting": "[2]", "result": 0.7}, {"measurement": "Binding of Control serum LUMC to linear peptides", "setting": "[2]", "result": 0.5}, {"measurement": "Binding of Control serum LUMC to looped peptides", "setting": "[2]", "result": 0.6}, {"measurement": "Binding of a rabbit serum to linear peptides", "setting": "[3]", "result": 0.4}, {"measurement": "Binding of a rabbit serum to looped peptides", "setting": "[3]", "result": 1.0}]}
{"sequence": "IRQEEVQQELYSPLF", "values": [{"measurement": "Binding of serum 1a to linear peptides of protein X4 of SARS-CoV Urbani", "setting": "[1]", "result": 0.7}, {"measurement": "Binding of serum 1b to linear peptides of protein X4 of SARS-CoV Urbani", "setting": "[1]", "result": 0.6}, {"measurement": "Binding of serum 2 to linear peptides of protein X4 of SARS-CoV Urbani", "setting": "[1]", "result": 0.5}, {"measurement": "Binding of serum 6 to linear peptides of protein X4 of SARS-CoV Urbani", "setting": "[1]", "result": 0.5}, {"measurement": "Binding of serum 37 to linear peptides of protein X4 of SARS-CoV Urbani", "setting": "[1]", "result": 0.8}, {"measurement": "Binding of serum 62 to linear peptides of protein X4 of SARS-CoV Urbani", "setting": "[1]", "result": 0.8}, {"measurement": "Binding of serum London to linear peptides of protein X4 of SARS-CoV Urbani", "setting": "[1]", "result": 0.7}, {"measurement": "Binding of serum SARS-green to linear peptides of protein X4 of SARS-CoV Urbani", "setting": "[1]", "result": 0.8}, {"measurement": "Binding of serum SARS-yellow to linear peptides of protein X4 of SARS-CoV Urbani", "setting": "[1]", "result": 0.7}, {"measurement": "Recognition of the peptide by sera of SARS-CoV infected individuals, and form (linear, looped/cyclic) in which it is recognized", "setting": "[1]", "result": "recognized in looped/cyclic form"}, {"measurement": "Binding of Control Serum Blood-Bank to Looped peptides", "setting": "[2]", "result": 0.7}, {"measurement": "Binding of Control serum Blood-bank to linear peptides", "setting": "[2]", "result": 0.7}, {"measurement": "Binding of Control serum LUMC to linear peptides", "setting": "[2]", "result": 0.7}, {"measurement": "Binding of Control serum LUMC to looped peptides", "setting": "[2]", "result": 0.9}, {"measurement": "Rabbit serum linear peptides", "setting": "[3]", "result": 0.4}, {"measurement": "Rabbit serum looped peptides", "setting": "[3]", "result": 0.4}]}
{"sequence": "ITTDTGIENATFFIF", "values": [{"measurement": "Binding of serum 1a to linear peptides of protein X1 of SARS-CoV Urbani", "setting": "[1]", "result": 0.8}, {"measurement": "Binding of serum 1a to looped/cyclic peptides of protein X1 of SARS-CoV Urbani", "setting": "[1]", "result": 0.7}, {"measurement": "Binding of serum 1b to linear peptides of protein X1 of SARS-CoV Urbani", "setting": "[1]", "result": 0.7}, {"measurement": "Binding of serum 1b to looped/cyclic peptides of protein X1 of SARS-CoV Urbani", "setting": "[1]", "result": 0.6}, {"measurement": "Binding of serum 2 to linear peptides of protein X1 of SARS-CoV Urbani", "setting": "[1]", "result": 0.6}, {"measurement": "Binding of serum 2 to looped/cyclic peptides of protein X1 of SARS-CoV Urbani", "setting": "[1]", "result": 0.6}, {"measurement": "Binding of serum 6 to linear peptides of protein X1 of SARS-CoV Urbani", "setting": "[1]", "result": 0.5}, {"measurement": "Binding of serum 6 to looped/cyclic peptides of protein X1 of SARS-CoV Urbani", "setting": "[1]", "result": 0.5}, {"measurement": "Binding of serum 37 to linear peptides of protein X1 of SARS-CoV Urbani", "setting": "[1]", "result": 0.6}, {"measurement": "Binding of serum 37 to looped/cyclic peptides of protein X1 of SARS-CoV Urbani", "setting": "[1]", "result": 0.9}, {"measurement": "Binding of serum 62 to linear peptides of protein X1 of SARS-CoV Urbani", "setting": "[1]", "result": 0.5}, {"measurement": "Binding of serum 62 to looped/cyclic peptides of protein X1 of SARS-CoV Urbani", "setting": "[1]", "result": 0.8}, {"measurement": "Binding of serum London to linear peptides of protein X1 of SARS-CoV Urbani", "setting": "[1]", "result": 0.3}, {"measurement": "Binding of serum London to looped/cyclic peptides of protein X1 of SARS-CoV Urbani", "setting": "[1]", "result": 0.3}, {"measurement": "Binding of serum SARS-green to linear peptides of protein X1 of SARS-CoV Urbani", "setting": "[1]", "result": 0.3}, {"measurement": "Binding of serum SARS-green to looped/cyclic peptides of protein X1 of SARS-CoV Urbani", "setting": "[1]", "result": 0.6}, {"measurement": "Binding of serum SARS-yellow to linear peptides of protein X1 of SARS-CoV Urbani", "setting": "[1]", "result": 0.5}, {"measurement": "Binding of serum SARS-yellow to looped/cyclic peptides of protein X1 of SARS-CoV Urbani", "setting": "[1]", "result": 0.7}, {"measurement": "Binding of Control Serum Blood-Bank to Looped peptides", "setting": "[2]", "result": 0.6}, {"measurement": "Binding of Control serum Blood-bank to linear peptides", "setting": "[2]", "result": 0.4}, {"measurement": "Binding of Control serum LUMC to linear peptides", "setting": "[2]", "result": 0.9}, {"measurement": "Binding of Control serum LUMC to looped peptides", "setting": "[2]", "result": 0.9}, {"measurement": "Binding of a rabbit serum to linear peptides", "setting": "[3]", "result": 0.1}, {"measurement": "Binding of a rabbit serum to looped peptides", "setting": "[3]", "result": 0.6}]}
